Results taken from US11987575B2, “Tricyclic compounds as BCR-ABL inhibitors” (ASCENTAGE PHARMA (SUZHOU) CO., LTD., priority 2019, dated 2024).

Experiments:
[1] = target: BaF3(WT) (Homo sapiens, UniProt P00519); assay: WST (CCK-8) anti-proliferative assay, BaF3 WT; details: read-out: BaF3(WT); BaF3 WT cells, 72 h treatment, CCK-8 readout OD 450 nm
Experimental: (§1) The anti-proliferative effect of representative compounds of the present disclosure was determined by a water-soluble tetrazolium (WST)-based assay using Cell Counting Kit-8 (CCK-8). Cells were seeded in 96-well plates and treated with different concentrations of test articles for 72 h. Each treatment was tested in triplicate. Briefly, a series of 9 concentrations were chosen for each test article and added at 100 μl/well into a 96-well plate. Each concentration was tested in triplicate. 100 μl of diluent was added into 3-6 wells in the same plate for cell control group, and another set of 3-6 wells was used as a blank control.
(§2) In each well, 100 μl of cell suspension (containing optimal cell numbers, which creates approximately 100% confluence of cells in control wells based on by the absorbance (OD) value) was dispensed into the same 96-well plate except for the blank well. The plate was then cultured at 37° C. in an incubator in an atmosphere with 5% CO2 for 72 h. At the end of the treatments, 20 μl/well of CCK-8 reagent was directly added to each well. The plate was then incubated at 37° C. in an incubator in an atmosphere with 5% CO2 for 2-4 hours.
(§3) The cells viability was calculated using the mean OD value of triplicated wells following the equation below: (OD sample−OD blank)/(OD cell control−OD blank)×100 IC50 values were calculated with Graphpad Prism 6.0 software using nonlinear regression (curve fitting) type data analysis.

[2] = target: BaF3 (T315I mutant) (Homo sapiens, UniProt P00519, T315I, cells depend on it); assay: WST (CCK-8) anti-proliferative assay, BaF3 T315I mutant; details: read-out: BaF3 (T315I mutant), 72 h treatment, CCK-8 readout OD 450 nm
Experimental: as §1, §2, §3

Row | SMILES | GI50 [1] [nM] | GI50 [2] [nM]
1 | CC(C)N1c2c(-c3ccn[nH]3)cc(C(=O)Nc3ccc(OC(F)(F)Cl)cc3)cc2C2CCC(N3CCCS3(=O)=O)C21 (centres unmarked) [Compound 37, N-(4-(chlorodifluoromethoxy)phenyl)-3-(1,1-dioxidoisothiazolidin-2-yl)-4-isopropyl-5-(1H-pyrazol-5-yl)-1,2,3,3a,4,8b-hexahydrocyclopenta[b]indole-7-carboxamide] | 25 | 245
2 | CC(C)N1c2c(-c3ccn[nH]3)cc(C(=O)Nc3ccc(OC(F)(F)Cl)cc3)cc2C2CCC(NC(=O)C3CCOCC3)C21 (centres unmarked) [Compound 31] | 15 | 40
3 | CC(C)N1c2c(-c3ccn[nH]3)cc(C(=O)Nc3ccc(OC(F)(F)Cl)cc3)cc2C2CCC(NS(C)(=O)=O)C21 (centres unmarked) [Compound 6] | 67 | 154
4 | COc1cncc(-c2cc(C(=O)Nc3ccc(OC(F)(F)Cl)cc3)cc3c2N(C(C)C)[C@H]2[C@H](NC(C)=O)CC[C@@H]32)c1 [Compound 51-A] | 12 | 116
